The target in test [1] is T1, Human CYP11B1 (Homo sapiens, UniProt P15538).
T1 construct: made in house; host or cells: V79-4 cell line #618 (stably selected with geneticin and hygromycin); sonicated homogenate, 500 x g supernatant
T1 sequence (P15538 25-503): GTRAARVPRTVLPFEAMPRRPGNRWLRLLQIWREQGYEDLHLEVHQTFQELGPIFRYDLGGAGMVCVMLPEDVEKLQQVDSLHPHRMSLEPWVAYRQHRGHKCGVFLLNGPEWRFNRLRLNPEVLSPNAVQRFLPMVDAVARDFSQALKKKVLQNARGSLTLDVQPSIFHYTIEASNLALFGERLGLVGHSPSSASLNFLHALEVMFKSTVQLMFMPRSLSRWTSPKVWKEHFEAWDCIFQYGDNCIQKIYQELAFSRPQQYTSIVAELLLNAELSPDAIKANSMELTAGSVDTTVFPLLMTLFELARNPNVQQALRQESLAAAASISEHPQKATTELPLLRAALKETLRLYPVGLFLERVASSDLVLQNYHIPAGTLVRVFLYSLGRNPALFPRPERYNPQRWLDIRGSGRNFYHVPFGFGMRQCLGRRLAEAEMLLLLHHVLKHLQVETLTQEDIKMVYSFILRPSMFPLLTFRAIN
Briefly: In vitro human CYP11B1 assay. Type of test: biochemical. The following applies: V79-4 cell homogenate, 11-deoxycortisol to cortisol, SPA. From the text: Complete EDTA-free protease inhibitor tablets were obtained from Roche Applied Science (Indianapolis, Ind.). Dulbecco's modified Eagle medium (DMEM), antibiotic, geneticin, hygromycin, and fetal bovine serum (FBS) were products of Invitrogen (Carlsbad, Calif.). NADPH Regeneration Solution A and Solution B were purchased from BD Biosciences Clontech (Palo Alto, Calif.). Anti-mouse PVT SPA beads and [1,2,6,7-^3H(N)]hydrocortisone were acquired from Amersham (Piscataway, N.J.) and PerkinElmer (Boston, Mass.), respectively.
Following 4 days of growth, cells were washed once with PBS, scraped and collected in PBS, and centrifuged at 1,300 rpm for 6 min. […] The sonication procedure was repeated 3 more times, with a 5 min rest on ice between sonications. The sonicated material was then spun at 500×g for 4 min to remove unbroken cells. The supernatant was brought to a final glycerol concentration of 5%, flash-frozen in liquid nitrogen, and stored at −80° C.
The CYP11B1 assays were performed in 96-well U-bottom non-tissue-culture-treated plates. […] Plates were then centrifuged at 2,400 rpm for 6 min, and 50 μl of supernatant was removed for measurement of cortisol content by scintillation proximity assay (SPA). Measurement of cortisol was performed using a 96-well plate format. […] Anti-mouse PVT SPA beads (50 μl) were then added to each well and incubated overnight at room temperature prior to counting in a Microbeta plate counter. The amount of cortisol in each sample was calculated by comparing with a standard curve generated using known quantities of the hormone. Full concentration-response curves of an inhibitor were performed at least 3 times. The IC50 values were derived using a non-linear least squares curve-fitting program from IDBS XLfit.

For test [2], the target named is T2, Rat CYP11B2 (Rattus norvegicus, UniProt P30099).
T2 construct: made in house; host or cells: V79-4 cell line #305 (stably selected with geneticin and hygromycin); sonicated homogenate, 500 x g supernatant
T2 sequence (P30099 35-510): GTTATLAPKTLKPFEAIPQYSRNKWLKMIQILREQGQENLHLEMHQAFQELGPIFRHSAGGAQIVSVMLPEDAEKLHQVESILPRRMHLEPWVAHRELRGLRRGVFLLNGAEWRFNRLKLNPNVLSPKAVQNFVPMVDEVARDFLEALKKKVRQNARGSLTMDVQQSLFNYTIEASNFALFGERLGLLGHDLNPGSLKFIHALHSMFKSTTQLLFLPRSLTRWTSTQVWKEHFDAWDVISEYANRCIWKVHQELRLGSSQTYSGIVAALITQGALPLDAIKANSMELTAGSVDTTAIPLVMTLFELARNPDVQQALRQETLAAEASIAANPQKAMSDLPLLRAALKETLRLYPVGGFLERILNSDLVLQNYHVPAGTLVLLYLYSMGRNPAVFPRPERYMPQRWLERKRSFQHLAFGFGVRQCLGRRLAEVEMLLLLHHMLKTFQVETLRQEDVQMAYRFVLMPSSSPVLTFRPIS
Briefly: In vitro rat CYP11B2 assay. Type of test: biochemical. Conditions: V79-4 cell homogenate, 11-deoxycorticosterone to aldosterone, SPA. On the procedure:
Following 2 days of growth, cells are washed once with PBS, scraped and collected in PBS, and centrifuged at 1,300 rpm for 6 min. […] The sonication procedure is repeated 3 more times, with a 5 min incubation on ice between sonications. The sonicated material is then spun at 500×g for 4 min to remove unbroken cells. The supernatant is brought to a final glycerol concentration of 5%, flash-frozen in liquid nitrogen, and stored at −80° C.
The CYP11B2 assay is performed in 96-well U-bottom non-tissue-culture-treated plates. […] Plates are then centrifuged at 2,400 rpm for 6 min, and 100 μl of supernatant is removed for measurement of aldosterone content by scintillation proximity assay (SPA).
Measurement of aldosterone is performed using a 96-well plate format. […] Anti-mouse PVT SPA beads (50 μl) are then added to each well and incubated for 4 hr at room temperature prior to counting in a Microbeta plate counter. The amount of aldosterone in each sample is calculated by comparing with a standard curve generated using known quantities of the hormone.
Full concentration-response curves of an inhibitor are performed at least 3 times. The IC50 values are derived using a non-linear least squares curve-fitting program from DBS XLfit.

Molecules are shown by their SMILES.

`COc1ccc(CN(C)C(=O)C2(c3ccc(C#N)cc3Cl)CCc3cncn32)cc1` (stereo not drawn) [5-(2-chloro-4-cyanophenyl)-N-(4-methoxybenzyl)-N-methyl-6,7-dihydro-5H-pyrrolo[1,2-c]imidazole-5-carboxamide]: the IC50 in test [1] came to 0.8 nM; in test [2], 5 nM.
Regarding `N#Cc1ccc(C2CCCCc3cncn32)c(-c2ccc(F)cc2)c1` (single isomer, unassigned) [4′-fluoro-6-(6,7,8,9-tetrahydro-5H-imidazo[1,5-a]azepin-5-yl)biphenyl-3-carbonitrile], the IC50 worked out at 0.3 nM in test [1] and 1 nM in test [2].
Take `N#Cc1ccc(C2CCCCc3cncn32)c(Br)c1` (racemic) [3-bromo-4-(6,7,8,9-tetrahydro-5H-imidazo[1,5-a]azepin-5-yl)benzonitrile racemate, 3-bromo-4-(6,7,8,9-tetrahydro-5H-imidazo[1,5-a]azepin-5-yl)benzonitrile]: the IC50 in test [1] was 0.2 nM; in test [2], 1 nM.

The values are drawn from patent US8609862B2, “Use of an adrenal hormone-modifying agent” (Novartis AG, priority 2010, dated 2013).
